Measurements taken from PMC12830207, “Targeting the protein–protein interaction between the CDC37 cochaperone and client kinases by an allosteric RAF dimer breaker” (The Journal of Biological Chemistry, 2025).

Tests used:
[1] = test system: HSP90; conditions: cited from earlier work
Description: However, this approach often requires high dosages, making cells more susceptible to thermal damage and inducing HSR1 expression ([10]). […] ATP competitive inhibitors for RAF kinase encou ...

[2] = test system: MAPK proteins (BRAF, CRAF, MEK, pMEK, ERK, pERK); experiment: Immunoblot of MAPK proteins in HCT116 cells; format: cell-based
Method: (§1) Western blot band densities were quantified with ImageJ software (National Institutes of Health) and normalized to the indicated loading control. Statistical significance was determined through one-/two-way ANOVA, where indicated, followed by Tukey's honest significant difference post hoc test with corresponding p values (∗p < 0.05, ∗∗p < 0.002, ∗∗∗p < 0.0002, and ∗∗∗∗p < 0.0001). All graph bars represent the mean ± SD with individual data points per biological replicate with corresponding p values.

[3] = test system: HCT116 cells; experiment: WST-1 cell viability assay, HCT116; format: cell-based; conditions: HCT116, no braftide, 24 h, WST-1; read-out: EC50 of 17-AAG alone, HCT116
Method: HCT116 and WM3629 cells were seeded onto polylysine-coated, clear-bottomed, 96-well plates at 15(10)^3 cells per well and allowed to incubate for 24 h. Cells were treated with braftide and 17-AAG mixtures at indicated concentrations for 24 h (37 °C). The WST-1 cell viability assay was carried out according to the manufacturer's protocols (Roche; 11644807001) for 4 h, and absorbance readings were taken at 450 nM in a CLARIOstar plate reader. For the dose–response curves of braftide and 17-AAG, the data were fit to the 4-parameter logistic equation (dose–response fitting equation) in GraphPad Prism (Dotmatics): y=A1+(A2−A1)÷(1+10^(LOGx0−x)p)
Error bars are indicative of the SEM of each point.

[4] = test system: BRAF–CDC37 interaction; experiment: NanoBiT luminescence CDC37–RAF interaction reporter assay, BRAF^SmBiT–CDC37^LgBiT; format: cell-based, human (HEK293); conditions: HEK293, 10 µM vemurafenib, 4 hrs, Fig. S8
Description: NanoBiT cytomegalovirus MCS BiBiT vector, which contains a BRAF N terminal fused with LgBiT and CRAF N terminal fused with SmBiT, was purchased from Promega. CDC37 LgBiT and CRAF SmBiT was generated using the standard Gibson Assembly (NEB HiFi Assembly) using NanoBiT BiBiT as the vector and following primers: 5′ […] 3′, 5′ […] 3′, 5′ […] 3′, 5′ […] 3′, and CDC37 LgBiT and BRAF SmBiT was generated using the standard Gibson Assembly using NanoBiT BiBiT as the vector and following primers: 5′ […] 3′, 5′ […] 3′, 5′ […] 3′, 5′ […] 3′. Primers were designed to introduce H20A, N22A, I23A triple mutation within the CDC37 FLAG tag and for NanoBiT construct CDC37(HNI/A) LgBit and BRAF SmBiT. Primers were designed to introduce the desired substitutions. The forward primer sequence was 5′ gccgcc[…] 3′, and the reverse primer sequence was 5′ gggggc[…] 3′. Site-directed mutagenesis was carried out using the Q5 Site-Directed Mutagenesis Kit (NEB; E0554) following the manufacturer's protocol.
Twenty-four hours post-transfection, cells were trypsinized, pelleted, resuspended in OptiMEM + 4% fetal bovine serum, and reseeded onto a 96-well plate at 5(10)^4 cells per well and then incubated at 37 °C overnight. Cells were pretreated with 1 μM bortezomib for 5 h and then braftide for 4 h at 0 and 25 μM. After treatment, 10 μM furimazine substrate was added to each well, and luminescence readings were taken at 470 to 480 nm using a CLARIOstar plate reader. Statistical significance was determined through a paired t test where indicated, followed by Tukey's honest significant difference post hoc test with corresponding p values (∗p < 0.05, ∗∗p < 0.01, and ∗∗∗p < 0.001). All graph bars represent the mean ± SD with individual data points per biological replicate with corresponding p values.

[5] = test system: ERK; conditions: cited from earlier work
Description: The RAF kinase family, comprising ARAF, BRAF, and CRAF, is one of the well-studied clients of CDC37. RAF kinase is a core component of the mitogen-activated protein kinase (MAPK) (RAS–RAF–mitogen-activated protein kinase kinase [MEK]–extracellular signal–regulated kinase [ERK]) pathway, governing cell proliferation, survival, senescence, differentiation, and migration ([18]). […] While ATP-competitive inhibitors like vemurafenib, dabrafenib, and encorafenib ...

[6] = test system: HSP90–CDC37 complex; conditions: cited from earlier work
Description: Unlike conventional HSP90 inhibitors, braftide preserves HSP90 activity while disrupting CDC37–client interactions, minimizing cytotoxicity and enhancing therapeutic precision. Braftide's ability to destabilize RAF through CDC37 inhibition may offer an alternative to high-dose HSP90 inhibitors, mitigating their associated side effects. […] While most HSP90–CDC37 inhibitors focus on HSP90 ATP-competitive inhibition ([6]), emerging ...

[7] = test system: HSP90; experiment: Photo-crosslinking and streptavidin pull-down, HSP90; format: binding, human (HEK293); conditions: 10 μM peptide, HEK293 lysate, 4 h, 4 °C, UV 1 h, streptavidin
Method: (§2) Transfected HEK293 cells were treated with the indicated treatments and harvested in cold PBS. The cell pellets were lysed in modified RIPA buffer (50 mM Hepes [pH 7.4], 150 mM sodium chloride, 0.1% NP-40 [IGEPAL630], 1 mM EDTA, 5% glycerol, 1 mM PMSF, 20 mM β-glycerophosphate, 2.5 mM sodium pyrophosphate, and 1 protease inhibitor tablet) and incubated with rotation for 2 h, 4 °C. Cell lysates were then incubated with resin (FLAG-M2 magnetic, Sigma [M8823] or streptavidin, Pierce [88816]) for 2 h to bind the tagged BRAF–CRAF or BTN–braftide-crosslinked proteins. The samples were washed five times in a modified RIPA buffer and quenched in loading dye (BTN IP elution was supplemented with 20 mM biotin in loading dye) and heated at 95 °C, 5 min. Samples were analyzed via immunoblot.
(§3) HEK293 cells were cotransfected with CDC37 (FLAG-tagged) and BRAF (V5-tagged). Cells were harvested in cold PBS, and pellets were lysed in modified RIPA buffer with rotation for 2 h, 4 °C. Cell lysate (1 mg) was incubated with 0 or 10 μM BTN–braftide/JAK2, with rotation for 4 h, at 4 °C. Samples were then exposed to […] UV light for 1 h over ice. After UV treatment, samples were incubated with Pierce Streptavidin magnetic beads (catalog no.: 88816) for 17 h at 4 °C, to bind BTN–braftide. […] Samples were analyzed via immunoblot.

[8] = test system: BRAF; experiment: Photo-crosslinking and streptavidin pull-down, BRAF; format: binding, human (HEK293); conditions: 10 μM peptide, lysate of HEK293 with CDC37-FLAG/BRAF-V5, 4 h, 4 °C, UV 1 h, streptavidin
Method: as §2, §3

[9] = test system: CDC37; experiment: Photo-crosslinking and streptavidin pull-down, CDC37; format: binding, human (HEK293); conditions: 10 μM peptide, lysate of HEK293 with CDC37-FLAG/BRAF-V5, 4 h, 4 °C, UV 1 h, streptavidin
Method: as §2, §3

[10] = test system: MAPK proteins / pERK; experiment: Immunoblot of protein degradation and pERK with control peptide in HEK293; format: cell-based, human (HEK293); conditions: HEK293 cotransfected with CDC37 and RAF (Fig. S2A)
Method: as §1

[11] = test system: CRAF; experiment: Photo-crosslinking and streptavidin pull-down, endogenous CRAF; format: binding, human (HEK293); conditions: 10 μM peptide, HEK293 lysate, 4 h, 4 °C, UV 1 h, streptavidin
Method: as §2, §3

[12] = test system: AKT1; experiment: Photo-crosslinking and streptavidin pull-down, AKT1; format: binding, human (HEK293); conditions: 10 μM peptide, HEK293 lysate, 4 h, 4 °C, UV 1 h, streptavidin
Method: as §2, §3

[13] = biological target: HSP90 (endogenous, HEK293), P07900; experiment: co-immunoprecipitation (IP: FLAG), immunoblot band quantification; conditions: chain shown with the change, representative blot

Molecule: C=CCNC1=C2C[C@@H](C)C[C@H](OC)[C@H](O)[C@@H](C)/C=C(\C)[C@H](OC(N)=O)[C@@H](OC)/C=C\C=C(/C)C(=O)NC(=CC1=O)C2=O [17-AAG, 17-N-allylamino-17-demethoxygeldanamycin, reference compound]
- cytotoxicity in clinical trials [1]: its clinical trials faced challenges because of high cytotoxicity
- CRAF degradation and MAPK signaling, combination ([2]; HCT116, 500 nM 17-AAG + 500 nM braftide, immunoblot, n = 3): significant degradation of CRAF kinase and downregulation of MAPK signaling
- inhibition by monotherapy at 500 nM ([2]; HCT116, 500 nM single agent, immunoblot): Neither 17-AAG nor braftide monotherapy exhibited obvious inhibition
- concentration at which CRAF kinase level is depleted, 17-AAG monotherapy ([2]; HCT116, 17-AAG alone, 16 h, immunoblot): 2 µM
- EC50 [3]: > 5 µM

Molecule: CCCS(=O)(=O)Nc1ccc(F)c(C(=O)c2c[nH]c3ncc(-c4ccc(Cl)cc4)cc23)c1F [Vemurafenib, reference compound]
- NanoBiT BRAF–CDC37 interaction, vemurafenib [4]: disrupted the interaction between BRAF and CDC37 in the NanoBiT assay
- paradoxical activation of downstream ERK [5]: can lead to paradoxical activation of downstream ERK under certain conditions

Molecule: CC1=C[C@H](C)C[C@H](C)[C@H](Cc2cnco2)OC(=O)/C(C)=C\[C@H](C)C[C@H](C)[C@H](Cc2cnco2)OC1=O [conglobatin A]
- dissociation of HSP90–CDC37 complex [6]: allosterically dissociate the HSP90–CDC37 complex

Molecule: CC(C)(C)c1nc(-c2cccc(NS(=O)(=O)c3c(F)cccc3F)c2F)c(-c2ccnc(N)n2)s1 [dabrafenib]
- paradoxical activation of downstream ERK [5]: can lead to paradoxical activation of downstream ERK under certain conditions

Molecule: COC(=O)N[C@@H](C)CNc1nccc(-c2cn(C(C)C)nc2-c2cc(Cl)cc(NS(C)(=O)=O)c2F)n1 [encorafenib]
- paradoxical activation of downstream ERK [5]: can lead to paradoxical activation of downstream ERK under certain conditions

Molecule: C[C@@H]1O[C@@H](O[C@H]2[C@H](OC(=O)[C@]34CCC(C)(C)C[C@H]3C3=CC[C@@H]5[C@@]6(C)C[C@H](O)[C@H](O[C@@H]7O[C@H](CO)[C@@H](O)[C@H](O)[C@H]7O)C(CO)(CO)[C@@H]6CC[C@@]5(C)[C@]3(C)C[C@H]4O)OC[C@H](O)[C@@H]2O)[C@H](O)[C@H](O)[C@H]1O[C@@H]1OC[C@@H](O)[C@H](O[C@@H]2OC[C@](O)(CO)[C@H]2O)[C@H]1O [platycodin D]
- dissociation of HSP90–CDC37 complex [6]: allosterically dissociate the HSP90–CDC37 complex

Molecule: Biotin-GRKKRRQRRRPQ-miniPEG-SxQHDNIVKY [BTN–JAK2, biotinylated control peptide derived from the αC helix–β4 loop of the JAK2 kinase, same TAT-miniPEG fragment, reference compound]
- co-immunoprecipitation of HSP90 with biotinylated peptide [7]: did not coimmunoprecipitate BRAF, CDC37, or HSP90 under the same conditions
- co-immunoprecipitation of BRAF with biotinylated peptide [8]: did not coimmunoprecipitate BRAF, CDC37, or HSP90 under the same conditions
- co-immunoprecipitation of CDC37 with biotinylated peptide [9]: did not coimmunoprecipitate BRAF, CDC37, or HSP90 under the same conditions
- protein degradation and pERK levels with control peptide [10]: did not induce protein degradation or reduce pERK levels

Molecule: Biotin-GRKKRRQRRRPQ-miniPEG-TRHVNILxFM [BTN–braftide]
- co-immunoprecipitation of HSP90 with biotinylated peptide [7]: Neither AKT1 nor HSP90 was pulled down in this assay
- co-immunoprecipitation of endogenous CRAF with biotinylated peptide [11]: coimmunoprecipitated CDC37, BRAF, and endogenous CRAF
- co-immunoprecipitation of AKT1 with biotinylated peptide [12]: Neither AKT1 nor HSP90 was pulled down in this assay
- co-immunoprecipitation of BRAF with biotinylated peptide [8]: coimmunoprecipitated CDC37, BRAF, and endogenous CRAF
- co-immunoprecipitation of CDC37 with biotinylated peptide [9]: coimmunoprecipitated CDC37, BRAF, and endogenous CRAF

Molecule: GRKKRRQRRRPQ-miniPEG-SLQHDNIVKY [TAT–JAK2, negative control peptide derived from the αC helix–β4 loop of the JAK2 kinase, reference compound]
- MAPK proteins with control peptide ([2]; HCT116, 4 h, Fig. S2A): MAPK proteins are unaffected by control peptide

Molecule: GRKKRRQRRRPQ-miniPEG-THHVNILLFM [R/H peptide]
- protein degradation of BRAF, CRAF, MEK, and ERK ([2]; HCT116, braftide^R2H, 4 h, immunoblot): failed to induce protein degradation of BRAF, CRAF, MEK, and ERK
- impact on MAPK signaling ([2]; HCT116, braftide^R2H, 4 h, pMEK and pERK immunoblot): had no impact on MAPK signaling in HCT116 cells

B1: CDC37-myc-FLAG, Q16543 H20A; N22A; I23A (protein)
chain: MVDYSVWDHIEVSDDEDETAPAADTASLFRWRHQARVERMEQFQKEKEELDRGCRECKRKVAECQRKLKELEVAEGGKAELERLQAEAQQLRKEERSWEQKLEEMRKKEKSMPWNVDTLSKDGFSKSMVNTKPEKTEEDSEEVREQKHKTFVEKYEKQIKHFGMLRRWDDSQKYLSDNVHLVCEETANYLVIWCIDLEVEEKCALMEQVAHQTIVMQFILELAKSLKVDPRACFRQFFTKIKTADRQYMEGFNDELEAFKERVRGRAKLRIEKAMKEYEEEERKKRLGPGGLDPVEVYESLPEELQKCFDVKDVQMLQDAISKMDPTDAKYHMQRCIDSGLWVPNSKASEAKEGEEAGPGDPLLEAVPKTGDEKDVSV
- ratio to parent ([13]; HEK293 cells coexpressing BRAF-V5): 1.01
- ratio to parent ([13]; HEK293 cells coexpressing CRAF-HA): 0.91
